Holding throughout (experiment): microscale thermophoresis
(In general: In MST a laser heats a spot of the sample, and binding alters the fluorescence response.)

In test [1] the test system is Dm-LS-2 (DNA, aptamer, HFNAP: side-chain on 5' nucleobase of each coding trinucleotide, positions 19,22,25,...,61 (codon key Figure 1B)) GAAAGCAGGACTGGAGATCCGCGCCGCTTTTATCCCTGTCCCCGCTACCCGTATCCCTCCTTGCAGACCGAACTAGAGCTT
As to conditions: 5 mM KCl, 1 mM MgCl2, 1 mM CaCl2 added; HBS-P+ buffer, 25 °C.

The subject of test [2] is Dm-LS-4 (DNA, aptamer, HFNAP: side-chain on 5' nucleobase of each coding trinucleotide, positions 19,22,25,...,61 (codon key Figure 1B)) GAAAGCAGGACTGGAGATCCGCGCCGCTTTTATCCCTAGTCCCTCTTACCCTACTTCCCCTTACAGACCGAACTAGAGCTT
As to conditions: 5 mM KCl, 1 mM MgCl2, 1 mM CaCl2 added; HBS-P+ buffer, 25 °C.

In test [3] the test system is Dm-HS-1 (DNA, aptamer, HFNAP nucleobase side-chains: fluorophenyl at 19; allylamine at 22,25,37; alcohol at 28,34,49; phenol at 31,46; cyclopentyl at 40; cyclopropyl at 43,58; imidazole at 52,55,61) GAAAGCAGGACTGGAGATCGATTCTGGTGCTGTTGATCTCCGCCATTGTGCTCCTACCCTTCACAGACCGAACTAGAGCTT
As to conditions: 5 mM KCl, 1 mM MgCl2, 1 mM CaCl2 added; HBS-P+ buffer, 25 °C.

Test [4] deals with Dm-HS-2 (DNA, aptamer, HFNAP: side-chain on 5' nucleobase of each coding trinucleotide, positions 19,22,25,...,61 (codon key Figure 1B)) GAAAGCAGGACTGGAGATCTATGGTCGCATCGTTGACCCTTGTCCTGCCCCTGTCTCTCTCAACAGACCGAACTAGAGCTT
The following applies: 5 mM KCl, 1 mM MgCl2, 1 mM CaCl2 added; HBS-P+ buffer, 25 °C.

Test [5] deals with Dm-HS-3 (DNA, aptamer, HFNAP: side-chain on 5' nucleobase of each coding trinucleotide, positions 19,22,25,...,61 (codon key Figure 1B)) GAAAGCAGGACTGGAGATCGATTATTGTGATTTTGATCTCCTCCATATCCCCTTCCCTACTCGCAGACCGAACTAGAGCTT
As to conditions: 5 mM KCl, 1 mM MgCl2, 1 mM CaCl2 added; HBS-P+ buffer, 25 °C.

Test [6] has as its system Dm-CCS-2 (DNA, aptamer, HFNAP: side-chain on 5' nucleobase of each coding trinucleotide, positions 19,22,25,...,61 (codon key Figure 1B)) GAAAGCAGGACTGGAGATCGTTTATGGCCACCTCCTTGACAGTTGCCCTGCCTCCAGTCCTCCCAGACCGAACTAGAGCTT
The following applies: 5 mM KCl, 1 mM MgCl2, 1 mM CaCl2 added; HBS-P+ buffer, 25 °C.

Test [7] deals with Dm-CCS-3 (DNA, aptamer, HFNAP: side-chain on 5' nucleobase of each coding trinucleotide, positions 19,22,25,...,61 (codon key Figure 1B)) GAAAGCAGGACTGGAGATTTACATCCCCTCCAGTCGTGCCCCCTACCTTGCTGCTCGTCATGGCAGACCGAACTAGAGCTT
The following applies: 5 mM KCl, 1 mM MgCl2, 1 mM CaCl2 added; HBS-P+ buffer, 25 °C.

In test [8] the test system is Dm-CCS-5 (DNA, aptamer, HFNAP: side-chain on 5' nucleobase of each coding trinucleotide, positions 19,22,25,...,61 (codon key Figure 1B)) GAAAGCAGGACTGGAGATTTCTACTATCTCCAGCCGTTCCACCACTGATGCCCTTAGTATCCTCAGACCGAACTAGAGCTT
The following applies: 5 mM KCl, 1 mM MgCl2, 1 mM CaCl2 added; HBS-P+ buffer, 25 °C.

The subject of test [9] is Dm-reference-based-random-after-selection-2 (DNA, other, HFNAP: side-chain on 5' nucleobase of each coding trinucleotide, positions 19,22,25,...,61 (codon key Figure 1B)) GAAAGCAGGACTGGAGATTTGTGCCCCTGATGCCCATGGTCCCTCCGCTGCTAACGTTTGCCTCAGACCGAACTAGAGCTT
As to conditions: 5 mM KCl, 1 mM MgCl2, 1 mM CaCl2 added; HBS-P+ buffer, 25 °C.

The test system of test [10] is Dm-reference-based-random-after-selection-5 (DNA, other, HFNAP: side-chain on 5' nucleobase of each coding trinucleotide, positions 19,22,25,...,61 (codon key Figure 1B)) GAAAGCAGGACTGGAGATCATTTCCTCCCTTATCGATAATCTCCTTTTTTATACTGCTTTTTCCAGACCGAACTAGAGCTT
The following applies: 5 mM KCl, 1 mM MgCl2, 1 mM CaCl2 added; HBS-P+ buffer, 25 °C.

Test [11] relates to Dm-HS-3 ∆ s.c. (DNA, aptamer, none (no side-chains)) GAAAGCAGGACTGGAGATCGATTATTGTGATTTTGATCTCCTCCATATCCCCTTCCCTACTCGCAGACCGAACTAGAGCTT
As to conditions: 5 mM KCl, 1 mM MgCl2, 1 mM CaCl2 added; HBS-P+ buffer, 25 °C.

For test [12], the system named is Dm-HS-4 ∆ s.c. (DNA, aptamer, none (no side-chains)) GAAAGCAGGACTGGAGATCGATTCTGGTGCTGTTGATCTCCGCCATTGTGCTCCTACCCTTCGCAGACCGAACTAGAGCTT
The following applies: 5 mM KCl, 1 mM MgCl2, 1 mM CaCl2 added; HBS-P+ buffer, 25 °C.

In test [13] the test system is Dm-HS-7 ∆ s.c. (DNA, aptamer, none (no side-chains)) GAAAGCAGGACTGGAGATCGATTGCAGTTACGTTGCTAGTCCCCTTGATCACCTCCGTCACCTCAGACCGAACTAGAGCTT
The following applies: 5 mM KCl, 1 mM MgCl2, 1 mM CaCl2 added; HBS-P+ buffer, 25 °C.

For test [14], the system named is Dm-HS-10 ∆ s.c. (DNA, aptamer, none (no side-chains)) GAAAGCAGGACTGGAGATCCTTCGCATCGGCTTTCTCCCTGTCACCCCTGTTCCCCTTGACCGCAGACCGAACTAGAGCTT
The following applies: 5 mM KCl, 1 mM MgCl2, 1 mM CaCl2 added; HBS-P+ buffer, 25 °C.

Test [15] concerns Dm-HS-1 TCC ∆ s.c. (DNA, aptamer, no side-chain at 52 (codon 12 TCC); others as HFNAP: fluorophenyl at 19; allylamine at 22, 25, 37; alcohol at 28, 34, 49; phenol at 31, 46; cyclopentyl at 40; cyclopropyl at 43, 58; imidazole at 55, 61) GAAAGCAGGACTGGAGATCGATTCTGGTGCTGTTGATCTCCGCCATTGTGCTCCTACCCTTCACAGACCGAACTAGAGCTT
As to conditions: 5 mM KCl, 1 mM MgCl2, 1 mM CaCl2 added to HBS-P+; HBS-P+ buffer, 25 °C.

On to `COc1cccc2c1C(=O)c1c(O)c3c(c(O)c1C2=O)C[C@@](O)(C(C)=O)C[C@@H]3O[C@H]1C[C@H](N)[C@H](O)[C@H](C)O1`, for which the dissociation constant Kd in test [1] was found to be 970 ± 60 nM; in test [2], 1980 ± 70 nM; in test [3] it was 12.85 ± 1.6 nM; in test [4] it was 4.77 ± 1.0 nM; in test [5], 4.78 ± 0.95 nM; in test [6], 16.6 ± 14.0 nM. Moreover, the Kd in [7] amounted to 26.4 ± 6.9 nM; in test [8], 10.4 ± 1.5 nM; in test [9], 114400 ± 7400 nM; in test [10] it was 119700 ± 9300 nM; in test [15] it was 29.9 ± 10.2 nM. Besides, the “Kd ∆ side-chains” value in [11] was 4450 ± 280 nM; in [12] it was 1810 ± 57 nM; in test [13] it was 2490 ± 120 nM; in test [14], 713 ± 28 nM.

Usually Kd stands for the free concentration of one partner at which half of the binding sites on the other are occupied at equilibrium, for simple one-to-one binding.

The record behind these values is publication PMC9352670 (2022).
